Experimental data taken from patent publication US10202604B2, “Methods of using microRNA-141” (Stemirna Therapeutics Co., Ltd., priority 2016, dated 2019).

Key:
EZH2 = EZH2 mRNA and protein levels; type: cell-based, human; conditions: Du145 cells; 1, 2, and 5 μM for 96 h
Experimental: FIG. 6A: Putative binding site of miR-141 in EZH2 3′-UTR. […] FIG. 6C is a qPCR analysis of EZH2 mRNA levels in CD44^+ PCa cells. Bars, mean±SD. *P<0.05; **P<0.01. […] Bars, mean±SD. **P<0.01. […] Western blotting was performed in PC3 and Du145 cells transfected with NC (60 nM) or miR-141 (30 or 60 nM) oligos (72 h). Relative protein levels were measured by densitometry and normalized to GAPDH levels (indicated below). […] Du145 cells plated one day before were treated with 1, 2, and 5 μM of DZNep for 96 h and then cells were harvested for invasion assays. **P<0.01. Inset, WB showing reduced EZH2 proteins by DZNep. […] Du145 cells were transfected with 10 nM scramble siRNA (siCon) or EZH2-targeting siRNAs (siEZH2) or siEZH2 plus anti-miR-141 (30 nM). 48 h later, cells were harvested for invasion assays. Bars, mean±SD. **P<0.01. […] Du145 cells were co-transfected with 30 nM NC or miR-141 oligos together with empty vector or pCMV-EZH2 construct. After 48 h, cells were harvested for invasion assay. Bars, mean±SD. **P<0.01.
Total RNA was extracted using microRNA isolation kit (Life Technologies) according to the manufacturer's instructions. microRNA qPCRs were performed using TaqMan microRNA assays (Life Technologies). qPCR data for microRNAs were normalized to RNU48 whereas qPCR data for mRNAs were normalized to GAPDH.
For Boyden Chamber invasion assays, Biocoat Matrigel Invasion Chamber (BD, Franklin Lakes, N.J.) was employed following the manufacturer's instructions. Briefly, 100,000-200,000 of prostate cancer cells after transfection with […]/miR-141 oligos or infection with miR-141 over-expressing lentivirus were seeded into each well. Medium with 20% fetal bovine serum was used in the lower chamber as chemo-attractant. After 20 h, cells were fixed and stained using HEMA stain. Representative images were taken for each membrane and cells were counted. Migration assays were simultaneously performed in control wells using identical protocol with Transwell (Costar; 8 μl PET) without Matrigel. […]

Du145 cells = experiment: Boyden chamber Matrigel invasion assay; type: cell-based, human; conditions: 1, 2, and 5 μM for 96 h
Experimental: FIGS. 3A-3J show partial suppression of epithelial to mesenchymal transition by miR-141 and CD44 as a direct target of miR-141. FIGS. 3A-3B show qPCR analysis of epithelial to mesenchymal transition markers in bulk (FIG. 3A) or CD44^+ (FIG. 3B) Du145 cells transfected with the miR-141 oligos (30 nM; 48 h). Results were presented as the relative expression levels over the cells transfected with the NC oligos. […] GAPDH was used as control and the relative protein levels after normalizing to GAPDH and NC controls were indicated below each lane. […] Shown below is the actual sequence in the region with the mutated miR-141 binding sequence indicated in grey (below). […] Shown are representative images. […]
Du145 cells transfected with NC or miR-141 oligos at the two doses and time intervals indicated were used in Western blotting. Indicated below are relative expression levels (normalized to respective GAPDH and compared to NC) of each protein determined by densitometric scanning of the individual bands. […]
FIG. 6A: Putative binding site of miR-141 in EZH2 3′-UTR. […] Relative protein levels were measured by densitometry and normalized to GAPDH levels (indicated below). […]
For Boyden Chamber invasion assays, Biocoat Matrigel Invasion Chamber (BD, Franklin Lakes, N.J.) was employed following the manufacturer's instructions. […] Representative images were taken for each membrane and cells were counted. […]

For `Cl.Nc1nccc2c1ncn2[C@@H]1C=C(CO)[C@@H](O)[C@H]1O` [DZNep, 3-Deazaneplanocin A hydrochloride, reference compound], the EZH2 protein (EZH2) was “reduced” and the Du145 cell invasion (Du145 cells) was “blocked”.
